Measured values as given in patent publication US8791131B2, “Imidazo[1,5]naphthyridine compounds, their pharmaceutical use and compositions” (Pfizer Inc., priority 2008, dated 2014).
Read-outs that look alike come from different tables or passages of the source.

Tests used:
PI3-Kα = PI3-Kα (Mus musculus (Mouse), UniProt P42337); experiment: PI3-Kα biochemical assay (in vitro kinase assay, fluorescence polarization); settings: for PI3Ka Ki: Ki calculated from IC50, [ATP]=30 uM, Km=25 uM;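 as to all read-outs here: Insect-cell-expressed mouse p110/p85 complex converting PI(4,5)P2, product PI(3,4,5)P3 detected by displacing TAMRA-tagged PI(3,4,5)P3 from Grip1 PH domain, lower polarization means more product, room temperature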
mTOR [1] = target: T1, mTOR (Homo sapiens (Human), UniProt P42345); experiment: biochemical
mTOR [2] = target: T1, mTOR
[3] = tested on: PI3-K (phosphorylation of AKT at serine 473) in BT20 cells; experiment: PI3-Kα cellular assay (phospho-AKT Ser473 ELISA in BT20 cells); settings: Homo sapiens, BT-20, 1 h;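 also: lysates read by ELISA with TMB colour at 450 nm, cells given 0.5% DMSO vehicle serve as positive control and cell-free wells as negative control, duplicate wells per concentration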
[4] = read-out: S473 pAKT 10% FBS IC50 (μM)
[5] = read-out: S473 pAKT 0.5% FBS IC50 (μM)

T1 sequence (P42345 2156-2469): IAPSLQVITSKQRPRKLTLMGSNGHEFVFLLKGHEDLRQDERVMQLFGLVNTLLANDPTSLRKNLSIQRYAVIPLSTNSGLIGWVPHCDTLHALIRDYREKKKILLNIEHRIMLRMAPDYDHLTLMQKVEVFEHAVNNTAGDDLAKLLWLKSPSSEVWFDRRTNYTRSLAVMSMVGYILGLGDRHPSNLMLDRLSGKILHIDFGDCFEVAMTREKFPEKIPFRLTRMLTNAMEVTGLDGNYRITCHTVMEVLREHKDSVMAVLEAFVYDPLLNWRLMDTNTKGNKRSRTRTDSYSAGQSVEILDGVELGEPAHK
PI3-Kα, sequence (P42337 whole entry, the tested form may be a part): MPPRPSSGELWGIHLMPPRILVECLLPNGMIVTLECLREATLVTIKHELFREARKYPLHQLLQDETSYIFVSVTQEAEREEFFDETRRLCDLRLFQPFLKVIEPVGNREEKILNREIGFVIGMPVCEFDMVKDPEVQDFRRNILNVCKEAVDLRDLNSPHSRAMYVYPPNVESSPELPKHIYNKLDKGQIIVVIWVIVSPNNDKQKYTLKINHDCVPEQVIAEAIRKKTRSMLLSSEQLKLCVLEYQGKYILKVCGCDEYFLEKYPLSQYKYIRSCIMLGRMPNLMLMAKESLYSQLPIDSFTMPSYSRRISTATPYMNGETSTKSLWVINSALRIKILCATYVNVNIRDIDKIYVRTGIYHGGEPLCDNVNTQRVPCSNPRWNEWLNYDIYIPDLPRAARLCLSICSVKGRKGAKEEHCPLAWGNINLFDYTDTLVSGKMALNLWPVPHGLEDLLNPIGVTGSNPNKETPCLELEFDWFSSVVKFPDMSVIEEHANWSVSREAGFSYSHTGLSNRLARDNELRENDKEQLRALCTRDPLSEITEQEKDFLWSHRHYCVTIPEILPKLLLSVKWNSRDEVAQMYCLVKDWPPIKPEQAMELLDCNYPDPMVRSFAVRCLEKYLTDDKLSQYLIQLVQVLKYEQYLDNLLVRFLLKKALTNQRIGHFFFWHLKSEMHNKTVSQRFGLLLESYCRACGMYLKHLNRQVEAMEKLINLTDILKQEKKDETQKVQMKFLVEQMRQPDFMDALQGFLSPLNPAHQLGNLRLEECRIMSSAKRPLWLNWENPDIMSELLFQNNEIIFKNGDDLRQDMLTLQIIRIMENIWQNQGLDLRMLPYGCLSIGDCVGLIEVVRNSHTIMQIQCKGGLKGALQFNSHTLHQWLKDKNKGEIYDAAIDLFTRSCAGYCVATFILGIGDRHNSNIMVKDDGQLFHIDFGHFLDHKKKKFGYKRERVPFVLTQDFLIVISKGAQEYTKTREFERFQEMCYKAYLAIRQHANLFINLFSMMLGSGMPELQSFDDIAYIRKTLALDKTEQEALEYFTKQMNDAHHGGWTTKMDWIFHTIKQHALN
PI3-Kα, sequence (P26450 whole entry partner, the tested form may be a part): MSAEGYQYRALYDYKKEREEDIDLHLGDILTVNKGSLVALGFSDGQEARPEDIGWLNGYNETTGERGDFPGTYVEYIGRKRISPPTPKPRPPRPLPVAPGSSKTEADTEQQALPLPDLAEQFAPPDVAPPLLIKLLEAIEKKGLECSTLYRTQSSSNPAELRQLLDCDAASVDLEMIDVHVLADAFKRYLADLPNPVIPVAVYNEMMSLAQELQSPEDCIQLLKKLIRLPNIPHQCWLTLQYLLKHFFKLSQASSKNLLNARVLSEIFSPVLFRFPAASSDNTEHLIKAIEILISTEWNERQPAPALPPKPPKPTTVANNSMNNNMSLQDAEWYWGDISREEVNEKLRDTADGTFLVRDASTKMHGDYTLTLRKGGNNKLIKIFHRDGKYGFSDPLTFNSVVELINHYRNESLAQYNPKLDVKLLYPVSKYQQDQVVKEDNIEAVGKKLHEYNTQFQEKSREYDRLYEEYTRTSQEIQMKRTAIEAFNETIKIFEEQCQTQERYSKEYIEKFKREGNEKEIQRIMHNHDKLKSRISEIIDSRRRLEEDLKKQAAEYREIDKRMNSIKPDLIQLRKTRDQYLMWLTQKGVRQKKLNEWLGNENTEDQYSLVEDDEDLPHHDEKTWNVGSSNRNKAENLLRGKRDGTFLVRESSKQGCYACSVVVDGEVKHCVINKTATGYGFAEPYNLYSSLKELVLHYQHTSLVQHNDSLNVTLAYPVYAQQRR

| Structure (SMILES) | Ki (PI3-Kα; read-out: PI3Ka Ki) [nM] | Ki (mTOR [1]) [nM] | PI3Ka Ki (PI3-Kα) [nM] | Ki (mTOR [2]) [nM] | IC50 [3, 4] [µM] | IC50 [3, 5] [µM] |
| --- | --- | --- | --- | --- | --- | --- |
| Cn1c(=O)n(C2CCNCC2)c2c3nc(-c4cnc5ccccc5c4)ccc3ncc21 [Compound 118, 3-methyl-1-piperidin-4-yl-8-quinolin-3-yl-1,3-dihydro-2H-imidazo[4,5-c][1,5]naphthyridin-2-one] | 2.08 | 13.2 | – | – | – | – |
| COc1ccc(-c2ccc3ncc4c(c3n2)n(C2CCN(CC(N)=O)CC2)c(=O)n4C)cn1 [Compound 139, 2-{4-[8-(6-methoxypyridin-3-yl)-3-methyl-2-oxo-2,3-dihydro-1H-imidazo[4,5-c][1,5]naphthyridin-1-yl]piperidin-1-yl}acetamide] | – | – | 0.339 | 3.32 | 0.00714 | – |
| CC(=O)N1CCC(n2c(=O)n(C)c3cnc4ccc(-c5ccc(S(C)(=O)=O)cc5)nc4c32)CC1 [Compound 246, 1-(1-acetylpiperidin-4-yl)-3-methyl-8-[4-(methylsulfonyl)phenyl]-1,3-dihydro-2H-imidazo[4,5-c][1,5]naphthyridin-2-one] | – | – | 24.2 | 35.3 | 2.58 | – |
| COc1cccc(-c2ccc3ncc4c(c3n2)n(C2CCN(C(=O)[C@H](C)O)CC2)c(=O)n4C)c1 [Compound 275, 1-{1-[(2S)-2-hydroxypropanoyl]piperidin-4-yl}-8-(3-methoxyphenyl)-3-methyl-1,3-dihydro-2H-imidazo[4,5-c][1,5]naphthyridin-2-one] | – | – | 2.01 | 8.51 | 0.0344 | – |
| Cn1c(=O)n(C2CCN(CC(F)(F)F)CC2)c2c3nc(-c4cnc5ccccc5c4)ccc3ncc21 [Compound 141, 3-methyl-8-quinolin-3-yl-1-[1-(2,2,2-trifluoroethyl)piperidin-4-yl]-1,3-dihydro-2H-imidazo[4,5-c][1,5]naphthyridin-2-one] | – | – | 20.5 | 9.56 | 0.0148 | – |
| COc1ncc(-c2ccc3ncc4c(c3n2)n(C2CCN(C(=O)[C@H](C)O)CC2)c(=O)n4C)cn1 [Compound 154, 1-{1-[(2S)-2-hydroxypropanoyl]piperidin-4-yl}-8-(2-methoxypyrimidin-5-yl)-3-methyl-1,3-dihydro-2H-imidazo[4,5-c][1,5]naphthyridin-2-one] | – | – | 2.59 | 0.822 | 0.0342 | – |
| CN(C)CC(=O)N1CCC(n2c(=O)n(C)c3cnc4ccc(-c5ccc(N(C)C)nc5)nc4c32)CC1 [Compound 144, 8-[6-(dimethylamino)pyridin-3-yl]-1-[1-(N,N-dimethylglycyl)piperidin-4-yl]-3-methyl-1,3-dihydro-2H-imidazo[4,5-c][1,5]naphthyridin-2-one] | – | – | 2.1 | 7.99 | 0.0153 | – |
| COc1ncc(-c2ccc3ncc4c(c3n2)n(C2CCN(CCO)CC2)c(=O)n4C)cn1 [Compound 185, 1-[1-(2-hydroxyethyl)piperidin-4-yl]-8-(2-methoxypyrimidin-5-yl)-3-methyl-1,3-dihydro-2H-imidazo[4,5-c][1,5]naphthyridin-2-one] | – | – | 11.9 | 25.2 | 0.124 | – |
| Cn1c(=O)n(C2CCN(C(=O)C(C)(C)O)CC2)c2c3nc(-c4cnc5[nH]ncc5c4)ccc3ncc21 [Compound 261, 1-[1-(2-hydroxy-2-methylpropanoyl)piperidin-4-yl]-3-methyl-8-(1H-pyrazolo[3,4-b]pyridin-5-yl)-1,3-dihydro-2H-imidazo[4,5-c][1,5]naphthyridin-2-one] | – | – | 0.114 | 0.658 | 0.00991 | – |
| CN(C)CC(=O)N1CCC(n2c(=O)n(C)c3cnc4ccc(-c5cnc6ccccc6c5)nc4c32)CC1 [Compound 126, 1-[1-(N,N-dimethylglycyl)piperidin-4-yl]-3-methyl-8-quinolin-3-yl-1,3-dihydro-2H-imidazo[4,5-c][1,5]naphthyridin-2-one] | – | – | 2.55 | 3.42 | – | 0.018 |
| COc1ccc(-c2ccc3ncc4c(c3n2)n([C@H](C)CO)c(=O)n4C)cn1 [Compound 233, 1-[(1R)-2-hydroxy-1-methylethyl]-8-(6-methoxypyridin-3-yl)-3-methyl-1,3-dihydro-2H-imidazo[4,5-c][1,5]naphthyridin-2-one] | – | – | 8.94 | 23.8 | 0.237 | – |
| CC(=O)N1CCC(n2c(=O)n(C)c3cnc4ccc(-c5ccnc6[nH]ncc56)nc4c32)CC1 [Compound 251, 1-(1-acetylpiperidin-4-yl)-3-methyl-8-(1H-pyrazolo[3,4-b]pyridin-4-yl)-1,3-dihydro-2H-imidazo[4,5-c][1,5]naphthyridin-2-one] | – | – | 0.811 | 4.63 | 0.14 | – |
| COc1ccc(-c2ccc3ncc4[nH]c(=O)n([C@H]5CC[C@H](OCCO)CC5)c4c3n2)cn1 [Compound 131, 1-[trans-4-(2-hydroxyethoxy)cyclohexyl]-8-(6-methoxypyridin-3-yl)-1,3-dihydro-2H-imidazo[4,5-c][1,5]naphthyridin-2-one] | – | – | 0.644 | 2.14 | 0.0384 | – |
| CN(C)c1ccc(-c2ccc3ncc4c(c3n2)n(C2CCN(CCO)CC2)c(=O)n4C)cn1 [Compound 198, 8-[6-(dimethylamino)pyridin-3-yl]-1-[1-(2-hydroxyethyl)piperidin-4-yl]-3-methyl-1,3-dihydro-2H-imidazo[4,5-c][1,5]naphthyridin-2-one] | – | – | 3.13 | 3.52 | 0.0325 | – |
| Cc1ccc(-c2ccc3ncc4c(c3n2)n(C2CCN(CC(N)=O)CC2)c(=O)n4C)cn1 [Compound 176, 2-{4-[3-methyl-8-(6-methylpyridin-3-yl)-2-oxo-2,3-dihydro-1H-imidazo[4,5-c][1,5]naphthyridin-1-yl]piperidin-1-yl}acetamide] | – | – | 0.882 | 1.41 | 0.0187 | – |
| Cn1cc(-c2ccc3ncc4c(c3n2)n(C2CCN(C(=O)C(C)(C)O)CC2)c(=O)n4C)cn1 [Compound 215, 1-[1-(2-hydroxy-2-methylpropanoyl)piperidin-4-yl]-3-methyl-8-(1-methyl-1H-pyrazol-4-yl)-1,3-dihydro-2H-imidazo[4,5-c][1,5]naphthyridin-2-one] | – | – | 4.67 | 22 | 0.0304 | – |
| COc1ccc(-c2ccc3ncc4c(c3n2)n(C2CCN(C(=O)CN(C)C)CC2)c(=O)n4C)cn1 [Compound 138, 1-[1-(N,N-dimethylglycyl)piperidin-4-yl]-8-(6-methoxypyridin-3-yl)-3-methyl-1,3-dihydro-2H-imidazo[4,5-c][1,5]naphthyridin-2-one] | – | – | 2.23 | 10.6 | 0.0144 | – |
| Cc1ccc(-c2ccc3ncc4c(c3n2)n(-c2ccc(C(C)(C)C#N)cc2)c(=O)n4C)cn1 [Compound 106, 2-methyl-2-{4-[3-methyl-8-(6-methylpyridin-3-yl)-2-oxo-2,3-dihydro-1H-imidazo[4,5-c]-1,5-naphthyridin-1-yl]phenyl}propanenitrile] | – | – | 34.8 | 26.9 | – | 0.0244 |
| CC(=O)N1CCC(n2c(=O)n(C)c3cnc4ccc(-c5cnn(C)c5)nc4c32)CC1 [Compound 213, 1-(1-acetylpiperidin-4-yl)-3-methyl-8-(1-methyl-1H-pyrazol-4-yl)-1,3-dihydro-2H-imidazo[4,5-c][1,5]naphthyridin-2-one] | – | – | 4.09 | 7.81 | 0.133 | – |
| COc1ncc(-c2ccc3ncc4c(c3n2)n(C2CCNCC2)c(=O)n4C)cn1 [Compound 188, 8-(2-methoxypyrimidin-5-yl)-3-methyl-1-piperidin-4-yl-1,3-dihydro-2H-imidazo[4,5-c][1,5]naphthyridin-2-one] | – | – | 8.15 | 50.4 | 0.333 | – |
| CN(C)c1ccc(-c2ccc3ncc4c(c3n2)n(-c2ccc(C(C)(C)C#N)cc2)c(=O)n4C)cn1 [Compound 108, 2-(4-(8-(6-(dimethylamino)pyridin-3-yl)-3-methyl-2-oxo-2,3-dihydroimidazo[4,5-c][1,5]naphthyridin-1-yl)phenyl)-2-methylpropanenitrile] | – | – | 4.45 | 4.67 | – | 0.0309 |
| C[C@H](O)C(=O)N1CCC(n2c(=O)n(C)c3cnc4ccc(-c5ccnc6[nH]ncc56)nc4c32)CC1 [Compound 253, 1-{1-[(2S)-2-hydroxypropanoyl]piperidin-4-yl}-3-methyl-8-(1H-pyrazolo[3,4-b]pyridin-4-yl)-1,3-dihydro-2H-imidazo[4,5-c][1,5]naphthyridin-2-one] | – | – | 1.04 | 1.69 | 0.218 | – |
| Cc1ccc(-c2ccc3ncc4c(c3n2)n([C@H](C)CO)c(=O)n4C)cn1 [Compound 231, 1-[(1R)-2-hydroxy-1-methylethyl]-3-methyl-8-(6-methylpyridin-3-yl)-1,3-dihydro-2H-imidazo[4,5-c][1,5]naphthyridin-2-one] | – | – | 13.4 | 56.2 | 0.269 | – |
| C[C@@H](O)C(=O)N1CCC(n2c(=O)n(C)c3cnc4ccc(-c5cnc6[nH]ncc6c5)nc4c32)CC1 [Compound 258, 1-{1-[(2R)-2-hydroxypropanoyl]piperidin-4-yl}-3-methyl-8-(1H-pyrazolo[3,4-b]pyridin-5-yl)-1,3-dihydro-2H-imidazo[4,5-c][1,5]naphthyridin-2-one] | – | – | 0.11 | 0.241 | 0.0294 | – |
| N[C@H]1CC[C@H](n2c(=O)[nH]c3cnc4ccc(-c5cnc6ccccc6c5)nc4c32)CC1 [Compound 192, 1-(trans-4-aminocyclohexyl)-8-quinolin-3-yl-1,3-dihydro-2H-imidazo[4,5-c][1,5]naphthyridin-2-one] | – | – | 2.21 | 3.33 | 0.402 | – |
